Experiments:
[1] = target: T1, membrane receptors of human breast cancer cells (Homo sapiens, UniProt P30968); assay: Receptor binding to human breast cancer cell membranes with 125I-labeled [D-Trp6]LHRH; conditions: high affinity binding sites, ¹²⁵l-labeled [D-Trp⁶]LHRH
T1 construct: human prostate and breast cancer cell membranes; endogenous in cells
T1 sequence (P30968 1-328): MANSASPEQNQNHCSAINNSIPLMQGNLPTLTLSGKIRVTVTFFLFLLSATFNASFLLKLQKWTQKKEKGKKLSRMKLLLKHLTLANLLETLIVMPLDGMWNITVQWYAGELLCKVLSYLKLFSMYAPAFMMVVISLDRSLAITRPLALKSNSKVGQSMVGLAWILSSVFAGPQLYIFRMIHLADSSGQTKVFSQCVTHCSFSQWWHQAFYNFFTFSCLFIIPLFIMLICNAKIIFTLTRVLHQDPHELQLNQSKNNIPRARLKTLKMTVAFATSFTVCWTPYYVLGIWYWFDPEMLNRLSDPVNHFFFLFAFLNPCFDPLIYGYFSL
Protocol: (c)Affinity for peptides to human prostate and breast cancer cell membranes.
(§1) This is determined by using labelled LHRH and [D-Trp⁶]LHRH. The assay is carried out similarly to that described by T. Kadar et al., Proc. Natl. Acad. Sci. USA, 85, 890-894 (1988).
(§2) Table 2 presents the antiovulatory activity of the claimed compounds having LHRH-inhibiting properties. The inhibitory action was determined in vivo, in 4-day cycling rats as described [A. Corbin and C. W. Beattie, Endocr. Res. Commun., 2, 1-23 (1975)]. Affinities of the claimed compounds to membrane receptors of rat pituitary and human breast cancer cells are also given in Tables 1 and 2 as determined by using [[…],D-Trp⁶]LHRH.

[2] = test system: dispersed rat pituitary cell superfusion system; assay: LH release in dispersed rat pituitary cell superfusion system (LHRH agonistic activity); assay type: cell-based; conditions: peptide infused for 3 minutes at various concentration; LH released compared to that released by 3 nM LHRH
Protocol: The ability of compounds to influence LH release in vitro is assayed by using a superfused rat pituitary cell system [S. Vigh and A. V. Schally, Peptides, 5 Suppl.
The peptide was infused for 3 minutes at various concentration, and the amount of LH released was compared to that released by 3 nM LHRH.

[3] = target: T2, membrane receptors of rat pituitary (Rattus norvegicus, UniProt P30969); assay: Receptor binding to rat pituitary membranes with 125I-labeled [D-Trp6]LHRH; conditions: Table 1, agonistic analogues; high affinity binding sites; pituitary of male rats; ¹²⁵l-labeled [D-Trp⁶]LHRH
T2 construct: membrane receptors of rat pituitary; from tissue; host or cells: rat pituitary membranes
T2 sequence (P30969 1-327): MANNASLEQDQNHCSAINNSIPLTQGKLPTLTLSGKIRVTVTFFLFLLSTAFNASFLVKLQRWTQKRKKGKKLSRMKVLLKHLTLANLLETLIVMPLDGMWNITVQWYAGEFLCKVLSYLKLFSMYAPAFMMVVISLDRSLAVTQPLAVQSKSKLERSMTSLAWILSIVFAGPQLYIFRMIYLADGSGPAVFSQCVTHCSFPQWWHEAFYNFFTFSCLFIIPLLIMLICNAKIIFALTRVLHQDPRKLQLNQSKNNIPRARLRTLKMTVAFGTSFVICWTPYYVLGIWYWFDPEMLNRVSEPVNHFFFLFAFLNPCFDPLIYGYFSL
Protocol: as §1, §2

[4] = test system: rat mammary tumor cell line MT-4; assay: Inhibition of 3H-thymidine incorporation into DNA of MT-4 monolayer cultures; assay type: cell-based; conditions: for DPM/Well x1000: mean +/- standard error
Protocol: (d) Ability of peptides of Formula I to inhibit incorporation of [³H]thymidine into DNA of monolayer cultures the rat mammary tumor cell line MT-4
This is assayed as described [V. K. Sondak et al., Cancer Research, 44, 1725-1728 (1984); F. Holzel et al., J. Cancer Res. Clin. Oncol. 109, 217-226 (1985); M. Albert et al., J. Cancer Res. Clin. Oncol. 109, 210-216 (1985)].
To obtain information about the cytotoxic properties of the compounds, the inhibition of ³H-thymidine incorporation into DNA of monolayer cultures of the rat mammary tumor cell line MT-4 was studied. Experiments started with 100 K MT-4 cells/plate on day 0. Dose was changed 3 times, total incubation time with the sample was 5 days. 1µCu ³H-thymidine/ml was added on day 4.

[5] = DME Medium + 0% Serum (plus additives), Dose 1 ng/ml (6x10⁻¹⁰M)
[6] = DME Medium + 0% Serum (plus additives), Dose 10 ng/ml
[7] = DME Medium + 0% Serum (plus additives), Dose 100 ng/ml
[8] = DME Medium + 0% Serum (plus additives), Dose 1000 ng/ml
[9] = DME Medium + 0% Serum (plus additives), Dose 2000 ng/ml
[10] = DME Medium + 10% Serum, Dose 1 ng/ml (6x10⁻¹⁰M)
[11] = DME Medium + 10% Serum, Dose 10 ng/ml
[12] = DME Medium + 10% Serum, Dose 100 ng/ml
[13] = DME Medium + 10% Serum, Dose 1000 ng/ml
[14] = DME Medium + 10% Serum, Dose 2000 ng/ml

Substance: Ac-D-Nal(2)-D-Phe(4Cl)-D-Pal(3)-Ser-Arg-D-Lys[(Cu⁺⁺)(SAL)₂(A₂bu-Eac)]-Leu-Arg-Pro-D-Ala-NH₂ [XXVIII]
- Binding affinity, Ka1, for membrane receptors of cancer cells ([1]; Table 2, antagonistic analogues): 0.192 nM-¹

Substance: pGlu-His-Trp-Ser-Tyr-D-Lys[(Cu²²)(CISAL)₂(DL-A₂pr)]-Leu-Arg-Pro-Gly-NH₂ [Example IX]
- Hormonal activity* LH responses rel. to LHRH (= 1) [2]: 10
- Binding affinity, Ka1, for membrane receptors of pituitary [3]: 8.625 nM⁻¹
- Binding affinity, Ka1, for membrane receptors of cancer cells ([1]; Table 1, agonistic analogues): 3.995 nM⁻¹

Substance: pGlu-His-Trp-Ser-Tyr-D-Lys[(Cu⁺⁺)(SAL) ₂(A₂pr)]-Leu-Arg-Pro-Gly-NH₂ [Example VII]
- %Inhibition [4, 5]: 41%
- DPM/Well x1000 [4, 5]: 249+/-30.5 DPM/Well x1000
- %Inhibition [4, 6]: 42%
- DPM/Well x1000 [4, 6]: 242+/-32.1 DPM/Well x1000
- %Inhibition [4, 7]: 56%
- DPM/Well x1000 [4, 7]: 186+/-13.2 DPM/Well x1000
- %Inhibition [4, 8]: 52%
- DPM/Well x1000 [4, 8]: 204+/-40.9 DPM/Well x1000
- %Inhibition [4, 9]: 41%
- DPM/Well x1000 [4, 9]: 249+/-45.1 DPM/Well x1000
- %Inhibition [4, 10]: 53%
- DPM/Well x1000 [4, 10]: 48+/-8.6 DPM/Well x1000
- %Inhibition [4, 11]: 61%
- DPM/Well x1000 [4, 11]: 40+/-6.7 DPM/Well x1000
- %Inhibition [4, 12]: 59%
- DPM/Well x1000 [4, 12]: 42+/-10.4 DPM/Well x1000
- %Inhibition [4, 13]: 65%
- DPM/Well x1000 [4, 13]: 36+/-5.1 DPM/Well x1000
- %Inhibition [4, 14]: 62%
- DPM/Well x1000 [4, 14]: 39+/-4.6 DPM/Well x1000
- inhibition of ³H-thymidine incorporation into DNA ([4]; at a concentration of 6x10.⁻¹⁰ M, total incubation time 5 days): strong inhibitory effect
- Hormonal activity* LH responses rel. to LHRH (= 1) [2]: 10
- Binding affinity, Ka1, for membrane receptors of pituitary [3]: 7.968 nM⁻¹
- Binding affinity, Ka1, for membrane receptors of cancer cells ([1]; Table 1, agonistic analogues): 3.589 nM⁻¹

Substance: pGlu-His-Trp-Ser-Tyr-D-Lys[(Cu⁺⁺)(SAL) 2(A₂pr)]-Leu-Arg-Pro-Gly-NH₂ [VIA]
- Hormonal activity* LH responses rel. to LHRH (= 1) [2]: 12
- Binding affinity, Ka1, for membrane receptors of pituitary [3]: 3.051 nM⁻¹
- Binding affinity, Ka1, for membrane receptors of cancer cells ([1]; Table 1, agonistic analogues): 1.348 nM⁻¹

Substance: pGlu-His-Trp-Ser-Tyr-D-Lys[(Ni⁺⁺)(SAL) 2(A₂pr)]-Leu-Arg-Pro-Gly-NH₂ [VIIIA]
- Hormonal activity* LH responses rel. to LHRH (= 1) [2]: 12
- Binding affinity, Ka1, for membrane receptors of pituitary [3]: 9.710 nM⁻¹
- Binding affinity, Ka1, for membrane receptors of cancer cells ([1]; Table 1, agonistic analogues): 5.234 nM⁻¹

Substance: pGlu-His-Trp-Ser-Tyr-D-Lys[(PtCl₂)(DL-A₂pr)]-Leu-Arg-Pro-Gly-NH₂ [Example III]
- Hormonal activity* LH responses rel. to LHRH (= 1) [2]: 55
- Binding affinity, Ka1, for membrane receptors of pituitary [3]: 3.285 nM⁻¹
- Binding affinity, Ka1, for membrane receptors of cancer cells ([1]; Table 1, agonistic analogues): 1.743 nM⁻¹

Substance: pGlu-His-Trp-Ser-Tyr-D-Lys[Cu⁺⁺) POL)₂(DL-A₂pr)]-Leu-Arg-Pro-Gly-NH₂ [XVIII]
- Hormonal activity* LH responses rel. to LHRH (= 1) [2]: 9
- Binding affinity, Ka1, for membrane receptors of pituitary [3]: 5.817 nM⁻¹
- Binding affinity, Ka1, for membrane receptors of cancer cells ([1]; Table 1, agonistic analogues): 3.005 nM⁻¹

Substance: pGlu-His-Trp-Ser-Tyr-D-Lys[(Cu⁺⁺)(PEN) ₂(A₂pr)]-Leu-Arg-Pro-Gly-NH₂ [Example XXI]
- Hormonal activity* LH responses rel. to LHRH (= 1) [2]: 10.6
- Binding affinity, Ka1, for membrane receptors of pituitary [3]: 10.989 nM⁻¹
- Binding affinity, Ka1, for membrane receptors of cancer cells ([1]; Table 1, agonistic analogues): 5.096 nM⁻¹

Substance: pGlu-His-Trp-Ser-Tyr-D-Lys [(Ni⁺⁺)(CISAL)₂(D-A₂pr)]-Leu-Arg-Pro-Gly-NH₂ [Example X]
- Hormonal activity* LH responses rel. to LHRH (= 1) [2]: 4
- Binding affinity, Ka1, for membrane receptors of pituitary [3]: 4.513 nM⁻¹
- Binding affinity, Ka1, for membrane receptors of cancer cells ([1]; Table 1, agonistic analogues): 2.236 nM⁻¹

Substance: pGlu-His-Trp-Ser-Tyr-D-Lys[(Cu⁺⁺)(FUR)₂(DL-A₂pr)]-Leu-Arg-Pro-Gly-NH₂ [XVII]
- Hormonal activity* LH responses rel. to LHRH (= 1) [2]: 10
- Binding affinity, Ka1, for membrane receptors of pituitary [3]: 1.770 nM⁻¹
- Binding affinity, Ka1, for membrane receptors of cancer cells ([1]; Table 1, agonistic analogues): 0.536 nM⁻¹

From patent publication EP0364819A2, “LHRH analogs” (The Administrators of The Tulane Educational Fund, priority 1988, dated 1990)
